Data taken from patent publication US20250270199A1, “THIAZOLE DERIVATIVES AND METHODS OF USING THE SAME” (Arkansas State University - Jonesboro, priority 2022, published 2025).
Values after ≈ are worked out from the molar mass of the structure shown. Values joined by “and” are separate entries in the source; they are usually repeats but may differ in a detail not shown here. Equal entries are not always repeated.

What was measured:
[1] = system: S. aureus ATCC 700699 (Sa 99); assay: MIC, broth microdilution, Sa 99; assay type: cell-based; settings: replicates from different days separated by comma; for MIC: Staphylococcus aureus, ATCC700699, Table 1, HT series, read-out: Minimum inhibitory concentration (MIC) Sa 99; for Minimum inhibitory concentration (MIC) Sa 99: Table 1, HT series
Method: (§1) The broth microdilution method was utilized to determine MIC values of novel thiazole derivatives against different clinically important Gram-positive bacteria according to the guidelines outlined by the Clinical and Laboratory Standards Institute (CLSI) as reported in our recent papers.^1-5 The starting concentration of compounds for MIC determination was 64 μg/mL serially diluted down the wells and the MIC values were recorded in duplicates in three independent experiments on different days.

[2] = system: S. aureus ATCC 33592 (Sa 92); assay: MIC, broth microdilution, Sa 92; assay type: cell-based; settings: Staphylococcus aureus, ATCC33592; Table 1, HT series; read-out: Minimum inhibitory concentration (MIC) Sa 92
Method: as §1

[3] = system: S. aureus ATCC 33591 (Sa 91); assay: MIC, broth microdilution, Sa 91; assay type: cell-based; settings: Staphylococcus aureus, ATCC33591; Table 1, HT series; read-out: Minimum inhibitory concentration (MIC) Sa 91
Method: as §1

[4] = system: S. aureus ATCC 25923 (Sa 23); assay: MIC, broth microdilution, Sa 23; assay type: cell-based; settings: replicates from different days separated by comma; for MIC: Staphylococcus aureus, ATCC25923, Table 1, HT series, read-out: Minimum inhibitory concentration (MIC) Sa 23; for Minimum inhibitory concentration (MIC) Sa 23: Table 1, HT series
Method: as §1

[5] = system: S. aureus ATCC BAA-2312 (Sa 12); assay: MIC, broth microdilution, Sa 12; assay type: cell-based; settings: Staphylococcus aureus, ATCCBAA2312; Table 1, HT series; read-out: Minimum inhibitory concentration (MIC) Sa 12
Method: as §1

[6] = system: E. faecalis ATCC 29212 (Efs 12); assay: MIC, broth microdilution, Efs 12; assay type: cell-based; settings: replicates from different days separated by comma; for Minimum inhibitory concentration (MIC) Efs 12: Table 1, HT series; for MIC: Enterococcus faecalis, ATCC29212, Table 1, HT series, read-out: Minimum inhibitory concentration (MIC) Efs 12
Method: as §1

[7] = system: Sa UAMS-1 MRSA ATCC 49230 (Sa UAMS); assay: MIC, broth microdilution, Sa UAMS; assay type: cell-based, S. aureus; settings: Staphylococcus aureus; Table 1, HT series; read-out: Minimum inhibitory concentration (MIC) Sa UAMS
Method: as §1

[8] = system: S. aureus subsp. aureus Rosenbach ATCC 25904 (SA Newman); assay: MIC, broth microdilution, SA Newman; assay type: cell-based; settings: Staphylococcus aureus; Table 1, HT series; read-out: Minimum inhibitory concentration (MIC) Sa Newman
Method: as §1

[9] = system: S. aureus LAC MRSA (Sa LAC); assay: MIC, broth microdilution, Sa LAC; assay type: cell-based; settings: Staphylococcus aureus, Table 1, HT series, read-out: Minimum inhibitory concentration (MIC) Sa LAC
Method: as §1

[10] = system: S. aureus subsp. aureus Rosenbach BAA-1717 (Sa USA 300); assay: MIC, broth microdilution, Sa USA 300; assay type: cell-based; settings: Staphylococcus aureus; Table 1, HT series; read-out: Minimum inhibitory concentration (MIC) SA USA 300
Method: as §1

[11] = system: S. epidermidis ATCC 700296 (Se); assay: MIC, broth microdilution, Se; assay type: cell-based; settings: Staphylococcus epidermidis, ATCC700296; Table 1, HT series; read-out: Minimum inhibitory concentration (MIC) Se
Method: as §1

[12] = system: E. faecalis ATCC 51299 (Efs 99); assay: MIC, broth microdilution, Efs 99; assay type: cell-based; settings: Enterococcus faecalis, ATCC51299; Table 1, HT series; read-out: Minimum inhibitory concentration (MIC) Efs 99
Method: as §1

[13] = system: E. faecium ATCC 700221 (Efm 21); assay: MIC, broth microdilution, Efm 21; assay type: cell-based; settings: Enterococcus faecium, ATCC700221, Table 1, HT series; read-out: Minimum inhibitory concentration (MIC) Efm 21
Method: as §1

[14] = system: B. subtilis ATCC 6633 (Bs); assay: MIC, broth microdilution, Bs; assay type: cell-based; settings: Bacillus subtilis, ATCC6633; Table 1, HT series; read-out: Minimum inhibitory concentration (MIC) Bs
Method: as §1

Row | Structure (SMILES) | MIC [1] [µg/mL] | Minimum inhibitory concentration (MIC) Sa 99 [1] | MIC [2] [µg/mL] | MIC [3] [µg/mL] | MIC [4] [µg/mL] | Minimum inhibitory concentration (MIC) Sa 23 [4] | MIC [5] [µg/mL] | Minimum inhibitory concentration (MIC) Efs 12 [6] | MIC [7] [µg/mL] | MIC [8] [µg/mL] | MIC [9] [µg/mL] | MIC [10] [µg/mL] | MIC [11] [µg/mL] | MIC [12] [µg/mL] | MIC [13] [µg/mL] | MIC [14] [µg/mL] | MIC [6] [µg/mL]
1 | Oc1ccc(-c2nc(-c3ccc(C(F)(F)F)cc3)cs2)cc1 [Compound 39, 4-(4-(4(trifluoromethyl)phenyl)thiazol-2-yl)phenol] | 4 (≈ 12.4 µM) |  | 4 (≈ 12.4 µM) | 4 (≈ 12.4 µM) | 2 (≈ 6.22 µM) |  | 2 (≈ 6.22 µM) |  | 4 (≈ 12.4 µM) | 4 (≈ 12.4 µM) |  | 4 (≈ 12.4 µM) | 2 (≈ 6.22 µM) | > 32 | 32 (≈ 99.6 µM) | 4 (≈ 12.4 µM) | > 32
2 | Oc1ccc(-c2nc(-c3ccc(F)c(Cl)c3)cs2)cc1O [Compound 21, 4-(4-(3-chloro-4-fluorophenyl)thiazol-2-yl)benzene-1,2-diol] | 8 (≈ 24.9 µM) |  | 8 (≈ 24.9 µM) | 4 (≈ 12.4 µM) | 8 (≈ 24.9 µM) |  | 8 (≈ 24.9 µM) |  | 4 (≈ 12.4 µM) | 4 (≈ 12.4 µM) |  | 4 (≈ 12.4 µM) | 8 (≈ 24.9 µM) | 16 (≈ 49.7 µM) | 16 (≈ 49.7 µM) | 16 (≈ 49.7 µM) | 16 (≈ 49.7 µM)
3 | Oc1ccc(-c2nc(-c3cccc(Cl)c3)cs2)cc1 [Compound 38, 4-(4-(3-chlorophenyl)thiazol-2-yl)phenol] | 4 (≈ 13.9 µM) |  | 4 (≈ 13.9 µM) | 4 (≈ 13.9 µM) | 4 (≈ 13.9 µM) |  | 4 (≈ 13.9 µM) |  | 4 (≈ 13.9 µM) | 4 (≈ 13.9 µM) |  | 4 (≈ 13.9 µM) | 4 (≈ 13.9 µM) | 8 (≈ 27.8 µM) | 8 (≈ 27.8 µM) | 4 (≈ 13.9 µM) | 8 (≈ 27.8 µM)
4 | Oc1ccc(-c2nc(-c3ccc(Cl)c(Cl)c3)cs2)cc1O [Compound 31, 4-(4-(3,4-dichlorophenyl)thiazol-2-yl)benzene-1,2-diol] | 4 (≈ 11.8 µM) |  | 4 (≈ 11.8 µM) | 4 (≈ 11.8 µM) | 4 (≈ 11.8 µM) |  | 4 (≈ 11.8 µM) |  | 4 (≈ 11.8 µM) | 4 (≈ 11.8 µM) |  | 4 (≈ 11.8 µM) | 4 (≈ 11.8 µM) | 16 (≈ 47.3 µM) | 16 (≈ 47.3 µM) | 16 (≈ 47.3 µM) | 16 (≈ 47.3 µM)
5 | Oc1ccc(-c2nc(-c3ccc(Cl)cc3Cl)cs2)cc1 [Compound 34, 4-(4-(2,4-dichlorophenyl)thiazol-2-yl)phenol] | 4 (≈ 12.4 µM) |  | 4 (≈ 12.4 µM) | 4 (≈ 12.4 µM) | 4 (≈ 12.4 µM) |  | 4 (≈ 12.4 µM) |  | 4 (≈ 12.4 µM) | 4 (≈ 12.4 µM) |  | 4 (≈ 12.4 µM) | 4 (≈ 12.4 µM) | 8 (≈ 24.8 µM) | 8 (≈ 24.8 µM) | 4 (≈ 12.4 µM) | 8 (≈ 24.8 µM)

Compounds with a lower MIC [1], results first:

Row | MIC [1] [µg/mL] | Minimum inhibitory concentration (MIC) Sa 99 [1] | MIC [2] [µg/mL] | MIC [3] [µg/mL] | MIC [4] [µg/mL] | Minimum inhibitory concentration (MIC) Sa 23 [4] | MIC [5] [µg/mL] | Minimum inhibitory concentration (MIC) Efs 12 [6] | MIC [7] [µg/mL] | MIC [8] [µg/mL] | MIC [9] [µg/mL] | MIC [10] [µg/mL] | MIC [11] [µg/mL] | MIC [12] [µg/mL] | MIC [13] [µg/mL] | MIC [14] [µg/mL] | MIC [6] [µg/mL] | Structure (SMILES)
6 | 2 (≈ 5.93 µM) | 2, 2, 2 μg/mL | 8 (≈ 23.7 µM) | 4 (≈ 11.9 µM) | 2 (≈ 5.93 µM) | 2, 2, 2 μg/mL | 4 (≈ 11.9 µM) | 16 µg/mL and 2 µg/mL and 8 µg/mL | 4 (≈ 11.9 µM) | 4 (≈ 11.9 µM) | 8 (≈ 23.7 µM) | 4 (≈ 11.9 µM) | 8 (≈ 23.7 µM) | 16 (≈ 47.4 µM) | 16 (≈ 47.4 µM) | 8 (≈ 23.7 µM) |  | Oc1ccc(-c2nc(-c3ccc(C(F)(F)F)cc3)cs2)cc1O [Compound 9, 4-(4-(4-(trifluoromethyl)phenyl)thiazol-2-yl)benzene-1,2-diol]
7 | 2 (≈ 4.93 µM) | 2, 2, 2 μg/mL | 2 (≈ 4.93 µM) | 2 (≈ 4.93 µM) | 2 (≈ 4.93 µM) | 1 µg/mL and 2 µg/mL | 2 (≈ 4.93 µM) | 16 µg/mL and 2 µg/mL and 8 µg/mL | 2 (≈ 4.93 µM) | 2 (≈ 4.93 µM) | 2 (≈ 4.93 µM) | 4 (≈ 9.87 µM) | 8 (≈ 19.7 µM) | 8 (≈ 19.7 µM) | 8 (≈ 19.7 µM) | 8 (≈ 19.7 µM) |  | Oc1ccc(-c2nc(-c3cc(C(F)(F)F)cc(C(F)(F)F)c3)cs2)cc1O [Compound 10, 4-(4-(3,5-bis(trifluoromethyl)phenyl)thiazol-2-yl)benzene-1,2-diol]
8 | 2 (≈ 5.74 µM) | 2, 2, 2 μg/mL | 8 (≈ 23 µM) | 4 (≈ 11.5 µM) | 2 (≈ 5.74 µM) | 2, 2, 2 μg/mL | 8 (≈ 23 µM) | 16 μg/mL (2×) and 2 μg/mL | 8 (≈ 23 µM) | 4 (≈ 11.5 µM) | 4 (≈ 11.5 µM) | 8 (≈ 23 µM) | 8 (≈ 23 µM) | 16 (≈ 45.9 µM) | 16 (≈ 45.9 µM) | 16 (≈ 45.9 µM) |  | Oc1ccc(-c2nc(-c3ccc(Br)cc3)cs2)cc1O [Compound 5, 4-(4-(4-bromophenyl)thiazol-2-yl)benzene-1,2-diol]
9 | 2 (≈ 5.14 µM) |  | 2 (≈ 5.14 µM) | 2 (≈ 5.14 µM) | 2 (≈ 5.14 µM) |  | 2 (≈ 5.14 µM) |  | 2 (≈ 5.14 µM) | 2 (≈ 5.14 µM) |  | 2 (≈ 5.14 µM) | 2 (≈ 5.14 µM) | 2 (≈ 5.14 µM) | 2 (≈ 5.14 µM) | 2 (≈ 5.14 µM) | 2 (≈ 5.14 µM) | Oc1ccc(-c2nc(-c3cc(C(F)(F)F)cc(C(F)(F)F)c3)cs2)cc1 [Compound 36, 4-(4-(3,5-bis(trifluoromethyl)phenyl)thiazol-2-yl)phenol]
10 | 1 (≈ 3.1 µM) |  | 1 (≈ 3.1 µM) | 1 (≈ 3.1 µM) | 1 (≈ 3.1 µM) |  | 1 (≈ 3.1 µM) |  | 2 (≈ 6.21 µM) | 2 (≈ 6.21 µM) |  | 1 (≈ 3.1 µM) | 1 (≈ 3.1 µM) | 2 (≈ 6.21 µM) | 2 (≈ 6.21 µM) | 4 (≈ 12.4 µM) | 2 (≈ 6.21 µM) | Oc1ccc(-c2nc(-c3ccc(Cl)c(Cl)c3)cs2)cc1 [Compound 41, 4-(4-(3,4-dichlorophenyl)thiazol-2-yl)phenol]
